In patent publication US20120270935A1, “FORMULATIONS” (priority 2009, published 2012):

Legend:
P. acnes NCTC 737 [1] = assay: Disc diffusion assay (DDA); assay type: cell-based, Propionibacterium acnes; details: 200 μg compound per disc, DMSO
Experimental: The first test micro-organism used was Propionibacterium acnes NCTC 737. This is a propionibacterial strain and is the type strain of the […]; it is fully susceptible to antibiotics.
The propionibacteria were cultured and maintained on Wilkins-Chalgren Anaerobe Medium (agar and broth) at pH 6.0; all cultures were incubated anaerobically at 37° C. for 72 hours.
This is an internationally recognised standard method for qualitatively assessing the antimicrobial activity of a compound.
(§1) A sterile paper disc was impregnated with a sample of the test compound in a suitable solvent and 30 minutes allowed for the solvents to evaporate (where possible). The disc was then placed on an agar plate onto which the test micro-organism had been inoculated. The plate was then incubated under the conditions described above, following which it was examined visually for signs of microbial growth. If the test compound had antimicrobial activity, a circular zone of no growth would be obtained around the disc. The diameter of this zone of “inhibition” was measured using a ProtoCOL™ automated zone sizer (Synbiosis, Cambridge, UK). In general, a greater diameter and/or area of the zone of inhibition indicates a greater antimicrobial activity in the relevant test compound, although other factors such as test compound mobility through the agar gel may also influence the result.
DDA assays, as described above, were carried out using as the test formulation the gel prepared in Example 2B above. Also tested was the Example 2B gel minus the Klucel™ thickener, which was also subjected to MIC and MBC assays. For the DDAs, which were performed in triplicate, 100 μl of the relevant formulation was loaded onto each disc, and zones of inhibition were recorded after 3 days' anaerobic incubation at 37° C. The MIC and MBC tests were performed in duplicate and the results recorded after 3 days and 7 days respectively, post-subculture onto drug-free medium. […]

S. aureus ATCC 29213 = assay: Disc diffusion assay (DDA); assay type: cell-based, Staphylococcus aureus; details: 200 μg per disc, Mueller-Hinton agar pH 7.0, overnight at 37° C. in air
Description: (a) staphylococci. The Staphylococcus aureus strain used was ATCC 29213. S. aureus and other staphylococci are common causes of a wide range of skin, skin structure and wound infections; S. aureus is also known to exacerbate eczema. The ATCC 29213 strain is known to be susceptible to beta-lactam antibiotics such as methicillin. The Staphylococcus epidermidis strain used was NCTC 11047. Staph. epidermidis forms part of the resident flora of skin and is an opportunistic pathogen which can cause biofilms to grow for instance on plastic surgical implants such as catheters. Unless otherwise stated, the staphylococci were cultured and maintained on Mueller-Hinton Medium (agar and broth) at pH 7.2; cultures were incubated aerobically at 37° C. for 19-20 hours, at pH 7 (±0.2). (b) C. striatum NCTC 764. Corynebacterium striatum is closely related to organisms (aerobic diphtheroids of the genus Corynebacterium) that cause body odour. It was cultured and maintained on Mueller-Hinton medium (agar and broth). All cultures were incubated aerobically at 37° C. for 72 hours, at pH 7 (±0.2). (c) streptococci. The strains tested were S. mutans ATCC 25175 and S. pyogenes ATCC 12344. S. mutans is a Gram-positive, microaerophilic bacterium which plays a significant role in dental caries and in infective endocarditis. Streptococcus pyogenes is associated with skin, soft tissue, burn and wound infections. […]
A sterile paper disc was impregnated with a sample of the test compound in a suitable solvent and 30 minutes allowed for the solvents to evaporate (where possible). […] The diameter of this zone of “inhibition” was measured using a ProtoCOL™ automated zone sizer (Synbiosis, Cambridge, UK). […]
Example 8 was repeated (except for the supplemented DDA assays), using S. aureus ATCC 29213 as the test organism. […] In the DDA assays, 200 μg is of each compound was loaded onto each disc: the culture medium was Mueller-Hinton agar at pH 7.0, and results were recorded after overnight incubation at 37° C. in air. […]

P. acnes NCTC 737 [2] = assay: Supplemented disc diffusion assay (lipid or salt); assay type: cell-based, Propionibacterium acnes; details: 200 μg compound per disc; for zone of inhibition at 200 µg/disc: Cutibacterium acnes, NCTC737
Experimental: as §1
The DDA test may be carried out using an agar gel supplemented with lipid and/or salt to simulate some of the major components present in human skin and to assess whether these substances might affect the antimicrobial activity observed for the test compound. Performance under these conditions can provide a more reliable indication of activity on topical application. […]
The compounds copper (II) usnate (Just for Today Ltd), sodium usnate (Yick-Vic Chemicals) and usnic acid (Sigma-Aldrich) were tested against P. acnes NCTC 737, using MIC, MBC and DDA assays as described above. For copper usnate and usnic acid, supplemented DDA assays were also carried out. DMSO was used as the solvent for all three test compounds. For the DDAs, 200 μg of the relevant test compound was loaded onto each disc. The MIC and MBC assays were conducted in triplicate, as were the DDAs for copper usnate.

| Compound | DDA zone diameter, unsupplemented medium (P. acnes NCTC 737 [1]) [mm] | DDA zone diameter (S. aureus ATCC 29213) [mm] | DDA zone diameter, +1% NaCl (P. acnes NCTC 737 [2]; medium +1% NaCl) [mm] | DDA zone diameter, +1% triolein (P. acnes NCTC 737 [2]; medium +1% triolein) [mm] | zone of inhibition at 200 µg/disc (P. acnes NCTC 737 [1]; Cutibacterium acnes, NCTC737, read-out: DDA zone diameter, unsupplemented medium) [mm] | zone of inhibition at 200 µg/disc (S. aureus ATCC 29213; Staphylococcus aureus, ATCC29213, read-out: DDA zone diameter) [mm] | zone of inhibition at 200 µg/disc (P. acnes NCTC 737 [2]; medium +1% NaCl, read-out: DDA zone diameter, +1% NaCl) [mm] | zone of inhibition at 200 µg/disc (P. acnes NCTC 737 [2]; medium +1% triolein, read-out: DDA zone diameter, +1% triolein) [mm] |
| --- | --- | --- | --- | --- | --- | --- | --- | --- |
| CC(=O)c1c([O-])c(C)c([O-])c2c1OC1=CC(=O)C(C(C)=O)C(=O)C12C.[Cu+2] (centres unmarked) [Copper usnate, copper (II) usnate] | 46.7 ± 0.4 | 14.8 ± 0.3 | 42.9 ± 0.4 | 27.4 ± 1.5 | – | – | – | – |
| CC(=O)c1c(O)c(C)c(O)c2c1OC1=CC(=O)C(C(C)=O)C(=O)C12C (centres unmarked) [Usnic acid, 2,6-diacetyl-7,9-dihydroxy-8,9b-dimethyl-1,3(2H,9bh)-dibenzofurandione] | – | – | – | – | 23.9 | 13.6 ± 0.3 | 29.8 | 10.9 |
